The results in this text go back to US20080312192A1, “Diaryl Urea Derivatives in the Treatment of Protein Kinase Dependent Diseases” (priority 2003, published 2008).

For orientation: IC50 means the concentration at which inhibition is half-maximal. High values mean lower potency, low ones higher potency. Usually melting point stands for the temperature, or range, at which the solid turns liquid.

One data set has as its target T1, RET (Homo sapiens, UniProt P07949).
T1 construct: expresses the amino acid region 658-1072 (Swiss prot No. Q9BTB0); made in house; host or cells: Sf9 insect cells (baculovirus, vector pFB-GSTX3)
T1 sequence (P07949 658-1072 isoform P07949-2): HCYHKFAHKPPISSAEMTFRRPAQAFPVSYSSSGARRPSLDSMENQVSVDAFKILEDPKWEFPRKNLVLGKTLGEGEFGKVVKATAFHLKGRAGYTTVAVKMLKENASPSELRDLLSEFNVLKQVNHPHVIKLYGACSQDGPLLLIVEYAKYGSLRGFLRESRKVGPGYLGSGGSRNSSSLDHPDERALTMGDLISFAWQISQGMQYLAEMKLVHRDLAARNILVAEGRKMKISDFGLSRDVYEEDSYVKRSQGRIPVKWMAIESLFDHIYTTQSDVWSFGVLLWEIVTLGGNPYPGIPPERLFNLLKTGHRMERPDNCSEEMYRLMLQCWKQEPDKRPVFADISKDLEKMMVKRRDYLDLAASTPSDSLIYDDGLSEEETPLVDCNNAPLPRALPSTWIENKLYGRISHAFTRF
Put plainly: RET kinase inhibition (33P incorporation into poly(Glu,Tyr), GST-wtRET or GST-RET-Men2B). Type of data set: biochemical. The protocol:
RET kinase inhibition is determined as follows:
The coding sequence for the cytoplasmic domain of wtRET is amplified by PCR from a cDNA library using specific primers. RET-Men2B is generated through site-directed mutagenesis resulting in the M918T mutation. The amplified DNA fragments and the pFB-GSTX3 vector are made compatible for ligation by digestion with SalI and KpnI. Ligation of these DNA fragments results in the baculovirus donor plasmids […] and pFB-GX3-RET-Men2B, respectively.
Production of virus: The baculovirus donor plasmids containing the kinase domains are transfected into the DH10Bac cell line (GIBCO) and the transfected cells are plated on selective agar plates. Colonies without insertion of the fusion sequence into the viral genome (carried by the bacteria) are blue. Single, white colonies are picked and viral DNA (bacmid) is isolated from the bacteria by standard plasmid purification procedures. Sf9 cells or Sf21 cells (American Type Culture Collection) are then transfected in 25 cm^2 flasks with the viral DNA using Cellfectin reagent.
Protein expression in Sf9 cells: Virus-containing media is collected from the transfected cell culture and used for infection to increase its titer. Virus-containing media obtained after two rounds of infection is used for large-scale protein expression. For large-scale protein expression 100 cm^2 round tissue culture plates are seeded with 5×10^7 cells/plate and infected with 1 mL of virus-containing media (approximately 5 MOIs). After 3 days, the cells are scraped off the plate and centrifuged at 500 rpm for 5 minutes. Cell pellets from 10-20, 100 cm^2 plates are re-suspended in 50 mL of ice-cold lysis buffer (25 mM Tris-HCl, pH 7.5, 2 mM EDTA, 1% NP-40, 1 mM DTT, 1 mM PMSF). The cells are stirred on ice for 15 minutes and then centrifuged at 5,000 rpms for 20 minutes.
Purification of GST-tagged proteins: The centrifuged cell lysate is loaded onto a 2 mL glutathione-sepharose column (Pharmacia) and washed 3× with 10 mL of 25 mM Tris-HCl, pH 7.5, 2 mM EDTA, 1 mM DTT, 200 mM NaCl. The GST-tagged proteins are then eluted by 10 applications (1 mL each) of 25 mM Tris-HCl, pH 7.5, 10 mM reduced-glutathione, 100 mM NaCl, 1 mM DTT, 10% glycerol and stored at −70° C.
Measure of enzyme activity: Tyrosine protein kinase assays with either purified GST-wtRET or GST-RET-Men2B protein are carried out in a final volume of 30 μL containing 15 ng of either GST-RET or GST-RET-Men2B protein, 20 mM Tris-HCl, pH 7.5, 1 mM MnCl2, 10 mM MgCl2, 1 mM DTT, 3 μg/mL poly(Glu, Tyr) 4:1, 1% DMSO, 2.0 μM ATP (γ-[^33P]-ATP 0.1 μCi). The activity is assayed in the presence or absence of inhibitors, by measuring the incorporation of ^33P from [γ^33P] ATP into poly(Glu, Tyr) 4:1. […] Subsequently, 40 μL of the reaction mixture are transferred onto Immobilon-PVDF membrane (Millipore) previously soaked for 5 minutes with methanol, rinsed with water, then soaked for 5 minutes with 0.5% H3PO4 and mounted on vacuum manifold with disconnected vacuum source. After spotting all samples, vacuum is connected and each well rinsed with 200 μL 0.5% H3PO4. Membranes are removed and washed 4× on a shaker with 1.0% H3PO4, once with ethanol. Membranes are counted after drying at ambient temperature, mounting in Packard TopCount 96-well frame, and addition of 10 μl/well of Microscint™ (Packard). […] One unit of protein kinase activity is defined as 1 nmole of ^33P transferred from [γ^33P] ATP to the substrate protein/minute/mg of protein at 37° C.

The target in a further data set is T2, Flt-3 (Homo sapiens, UniProt P36888).
T2 construct: amino acids 563-993 of the cytoplasmic kinase domain of human Flt-3; made in house; host or cells: Sf9 insect cells (baculovirus, vector pFbacG01)
T2 sequence (P36888 563-993): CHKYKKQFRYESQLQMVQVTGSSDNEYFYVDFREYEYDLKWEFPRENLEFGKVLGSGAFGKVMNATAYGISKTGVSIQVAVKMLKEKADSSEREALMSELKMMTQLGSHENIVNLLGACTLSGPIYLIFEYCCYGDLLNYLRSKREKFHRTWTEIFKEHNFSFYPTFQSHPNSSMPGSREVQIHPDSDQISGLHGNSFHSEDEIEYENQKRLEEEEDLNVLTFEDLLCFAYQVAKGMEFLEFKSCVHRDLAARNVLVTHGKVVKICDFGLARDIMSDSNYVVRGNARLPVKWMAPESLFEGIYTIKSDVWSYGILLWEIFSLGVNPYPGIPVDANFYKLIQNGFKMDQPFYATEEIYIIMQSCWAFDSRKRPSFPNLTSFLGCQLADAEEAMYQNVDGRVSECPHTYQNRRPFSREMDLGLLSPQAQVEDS
The data set is described as follows: Flt-3 kinase inhibition (GST-Flt-3, 33P incorporation into poly(Glu,Tyr)). Type of data set: biochemical. On the procedure: Flt-3 kinase inhibition is determined as follows: The baculovirus donor vector pFbacG01 (GIBCO) is used to generate a recombinant baculovirus expressing the amino acid region amino acids 563-993 of the cytoplasmic kinase domain of human Flt-3. The coding sequence for the cytoplasmic domain of Flt-3 is amplified by PCR from human c-DNA libraries (Clontech). The amplified DNA fragments and the pFbacG01 vector are made compatible for ligation by digestion with BamHI and HindIII. Ligation of these DNA fragments results in the baculovirus donor plasmid pFbacG01-Flt-3. The production of the viruses, the expression of proteins in Sf9 cells and the purification of the GST-fused proteins are performed as follows:
Production of virus: The baculovirus donor plasmid (pFbacG01-Flt-3) containing the Flt-3 kinase domain is transfected into the DH10Bac cell line (GIBCO) and the transfected cells are plated on selective agar plates. Colonies without insertion of the fusion sequence into the viral genome (carried by the bacteria) are blue. Single white colonies are picked and viral DNA (bacmid) is isolated from the bacteria by standard plasmid purification procedures. Sf9 or Sf21 cells (American Type Culture Collection) are then transfected in flasks with the viral DNA using Cellfectin reagent.
Protein expression in Sf9 cells: Virus containing media is collected from the transfected cell culture and used for infection to increase its titre. Virus containing media obtained after two rounds of infection is used for large-scale protein expression. For large-scale protein expression 100 cm^2 round tissue culture plates are seeded with 5×10^7 cells/plate and infected with 1 mL of virus-containing media (approx. 5 MOIs). After 3 days the cells are scraped off the plate and centrifuged at 500 rpm for 5 min. Cell pellets from 10-20, 100 cm^2 plates are resuspended in 50 mL of ice-cold lysis buffer (25 mM Tris-HCl, pH 7.5, 2 mM EDTA-1% NP-40. 1 mM DTT, 1 mM PMSF). The cells are stirred on ice for 15 min and then centrifuged at 5000 rpms for 20 min.
Purification of GST-tagged protein: The centrifuged cell lysate is loaded onto a 2 mL glutathione-sepharose column (Pharmacia) and washed three times with 10 mL of 25 mM Tris-HCl, pH 7.5, 2 mM EDTA, 1 mM DTT, 200 mM NaCl. The GST-tagged protein is then eluted by 10 applications (1 mL each) of 25 mM Tris-HCl, pH 7.5, 10 mM reduced-glutathione, 100 mM NaCl, 1 mM DTT, 10% Glycerol and stored at −70° C.
Measurement of enzyme activity: Tyrosine protein kinase assays with purified GST-Flt-3 protein are carried out in a final volume of 30 μL containing 200-1800 ng of enzyme protein (depending on the specific activity), 20 mM Tris-HCl, pH 7.6, 3 mM MnCl2, 3 mM MgCl2, 1 mM DTT, 10 μM Na3VO4, 3 μg/mL poly(Glu, Tyr) 4:1, 1% DMSO, 8.0 μM ATP and 0.1 μCi [γ^33 P] ATP. The activity is assayed in the presence or absence of inhibitors, by measuring the incorporation of ^33P from [γ^33P] ATP into the poly(Glu,Tyr) substrate. The assay (30 μL) is carried out in 96-well plates at ambient temperature for 20 min and terminated by the addition of 20 μL of 125 mM EDTA. Subsequently, 40 μL of the reaction mixture is transferred onto Immobilon-PVDF membrane (Millipore, Bedford, Mass., USA) previously soaked for 5 min with methanol, rinsed with water, then soaked for 5 min with 0.5% H3PO4 and mounted on vacuum manifold with disconnected vacuum source. After spotting all samples, vacuum is connected and each well rinsed with 200 μL 0.5% H3PO4. Membranes are removed and washed 4× on a shaker with 1.0% H3PO4, once with ethanol. Membranes are counted after drying at ambient temperature, mounting in Packard TopCount 96-well frame, and addition of 10 μL/well of Microscint™ (Packard). IC50 values are calculated by linear regression analysis of the percentage inhibition of each compound in duplicate, at four concentrations (usually 0.01, 0.1, 1 and 10 μM). One unit of protein kinase activity is defined as 1 nmole of ^33P transferred from [γ3P] […]

On to `CNc1cc(Oc2ccc(NC(=O)Nc3cc(CN(C)C)cc(C(F)(F)F)c3)cc2)ncn1` [1-(3-Dimethylaminomethyl-5-trifluoromethyl-phenyl)-3-[4-(6-methylamino-pyrimidin-4-yloxy)-phenyl]-urea], for which the IC50 on RET amounted to 110 nM.

`CN1CCN(Cc2cc(NC(=O)Nc3ccc(Oc4cc(N)ncn4)cc3)cc(C(F)(F)F)c2)CC1` [1-[4-(6-Amino-pyrimidin-4-yloxy)-phenyl]-3-[3-(4-methyl-piperazin-1-ylmethyl)-5-trifluoromethyl-phenyl]-urea] yielded an IC50 against RET of 260 nM.

In turn, `CNc1cc(Oc2ccc(NC(=O)Nc3cc(CN4CCN(C)CC4)cc(C(F)(F)F)c3)cc2)ncn1` [1-[4-(6-Methylamino-pyrimidin-4-yloxy)-phenyl]-3-[3-(4-methyl-piperazin-1-ylmethyl)-5-trifluoromethyl-phenyl]-urea] yielded an IC50 on RET of 590 nM.

`Nc1cc(Oc2ccc(NC(=O)Nc3ccc(-c4ccncc4)c(C(F)(F)F)c3)cc2)ncn1` [Example 59, 1-[4-(6-Amino-pyrimidin-4-yloxy)-phenyl]-3-(4-pyridine-4-yl-3-trifluoromethyl-phenyl)-urea] returned a melting point of 131 to 135 °C. For the same compound, the concentration for half-maximal inhibition (IC50) at Flt-3 amounted to 76 nM.

The compound `Cc1cccc(-c2ccc(NC(=O)Nc3ccc(Oc4cc(N)ncn4)cc3)cc2C(F)(F)F)n1` [Example 60, 1-[4-(6-Amino-pyrimidin-4-yloxy)-phenyl]-3-[4-(6-methyl-pyridin-2-yl)-3-trifluoromethyl-phenyl]-urea] yielded a melting point of 130 to 133 °C. The same compound gave a half-inhibitory concentration (IC50) on Flt-3 of 160 nM.

With `CNc1cc(Oc2ccc(NC(=O)Nc3ccc(-c4ccccn4)c(C(F)(F)F)c3)cc2)ncn1` [Example 61, 1-[4-(6-Methylamino-pyrimidin-4-yloxy)-phenyl]-3-(4-pyridin-2-yl-3-trifluoromethyl-phenyl)-urea], the melting point fell in the range of 114 to 118 °C. In addition, at Flt-3, the 50% inhibitory concentration (IC50) came to 490 nM.

`CNc1cc(Oc2ccc(NC(=O)Nc3ccc(-c4cccnc4)c(C(F)(F)F)c3)cc2)ncn1` [Example 62, 1-[4-(6-Methylamino-pyrimidin-4-yloxy)-phenyl]-3-(4-pyridin-3-yl-3-trifluoromethyl-phenyl)-urea] gave a melting point of 118 to 123 °C. Moreover, the IC50 against Flt-3 is 160 nM.

The compound `CNc1cc(Oc2ccc(NC(=O)Nc3ccc(-c4ccncc4)c(C(F)(F)F)c3)cc2)ncn1` [Example 63, 1-[4-(6-Methylamino-pyrimidin-4-yloxy)-phenyl]-3-(4-pyridin-4-yl-3-trifluoromethyl-phenyl)-urea] showed a melting point of 127 to 130 °C. This compound returned a 50% inhibitory concentration (IC50) against Flt-3 of 140 nM.

In turn, `CNc1cc(Oc2ccc(NC(=O)Nc3ccc(-c4cccc(C)n4)c(C(F)(F)F)c3)cc2)ncn1` [Example 64, 1-[4-(6-Methylamino-pyrimidin-4-yloxy)-phenyl]-3-[4-(6-methyl-pyridin-2-yl)-3-trifluoromethyl-phenyl]-urea] displayed a melting point of 106 to 109 °C. The compound also registered an IC50 at Flt-3 of 340 nM.
